Key:
[1] = target: T1, Recombinant human LTC4 synthase (Homo sapiens, UniProt Q16873); assay: LTC4 synthase in vitro assay (HPLC method); assay type: biochemical; conditions: inhibition of LTC4 synthase
T1 construct: made in house; host or cells: Pichia pastoris
T1 sequence (Q16873 1-150): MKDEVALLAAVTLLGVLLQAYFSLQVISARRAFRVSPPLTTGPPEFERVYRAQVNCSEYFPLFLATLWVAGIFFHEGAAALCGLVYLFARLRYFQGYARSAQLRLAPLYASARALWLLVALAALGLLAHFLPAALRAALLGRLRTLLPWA
Description: In the assay, LTC4 synthase catalyses the reaction where the substrate LTA4 methyl ester is converted to the corresponding LTC4 methyl ester. Recombinant human LTC4 synthase is expressed in Piccia pastoralis and the purified enzyme is dissolved in 25 mM Tris-buffer pH 7.8 and stored at −80° C. The assay is performed in phosphate buffered saline (PBS) pH 7.4, supplemented with 5 mM glutathione (GSH). The reaction is terminated by addition of acetonitrile/MeOH/acetic acid (50/50/1). The assay is performed at rt in 96-well plates. Analysis of the formed LTC4 methyl ester is performed with reversed phase HPLC (Waters 2795 utilizing an Onyx Monolithic C18 column). The mobile phase consists of acetonitrile/MeOH/H2O (32.5/30/37.5) with 1% acetic acid pH adjusted with NH3 to pH 5.6, and absorbance measured at 280 nm with a Waters 2487 UV-detector.
The following is added chronologically to each well: • 1. 50 μl assay buffer, PBS with 5 mM GSH. • 2. 0.5 μl inhibitor in DMSO (final conc. 1 nM-10 μM). • 3. 2 μl LTC4 synthase in PBS. The total protein concentration in this solution is 0.025 mg/ml. Incubation of the plate at room temperature for 10 minutes. • 4. 1-1.5 μl LTA4 methyl ester (final conc. 10 μM). Incubation of the plate at rt for 1 min. • 5. 50 μl stop solution.
80 μl of the incubation mixture is analysed with HPLC.

[2] = target: T1, Recombinant human LTC4 synthase; assay: LTC4 synthase in vitro assay (HTRF detection of LTC4); assay type: biochemical; conditions: HTRF method
Summary of the method: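 Pichia-expressed recombinant human LTC4 synthase at 0.5 μg/ml total protein in PBS pH 7.4 with 5 mM GSH, preincubated 10 min at RT with inhibitor (10 μM final). LTA4 (2.5 μM final) was then added for 5 min at RT. LTC4 formed was read by HTRF.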

[3] = total concentration of title compound in the assay 10 μM

Compound | IC50 [1] | inhibition at 10 µM [2, 3] | inhibition at 3 µM ([2]; compound concentration 3 μM) | % inh. [2, 3]
CCCCOc1ccc(S(=O)(=O)Nc2ccc(Oc3cccc(S(=O)(=O)Nc4ccc(Cl)cc4)c3)cc2C(=O)O)cc1 [19:1, 2-(4-Butoxy-benzenesulfonylamino)-5-[3-(4-chloro-phenylsufamoyl)-phenoxy]-benzoic acid] | 1160 nM | 100% | – | –
CC(C)Oc1ccc(C(=O)Nc2ccc(Oc3ccc(NC(=O)c4ccccc4)cc3)cc2/C=C/C(=O)O)cc1 [Example 22:3, (E)-3-[5-(4-Benzoylaminophenoxy)-2-(4-isopropoxy-benzoylamino)-phenyl]acrylic acid] | 5110 nM | 72% | – | –
CCCCOc1ccc(S(=O)(=O)Nc2ccc(Oc3cccc(Oc4ccc(F)c(F)c4)c3)cc2C(=O)O)cc1 [28:1] | 629 nM | 98% | – | –
O=C(Nc1ccc(Sc2ccc(NC(=O)Nc3ccc(C(F)(F)F)cc3)c(C(=O)O)c2)cc1)Nc1ccc(C(F)(F)F)cc1 [14:6, 2-[3-(4-trifluoromethyl-phenyl)ureido]-5-{4-[3-(4-trifluoromethylphenyl)-ureido]phenylsulfanyl}-benzoic acid] | 449 nM | – | 80% | –
O=C(O)c1cc(Oc2ccc(Nc3ccc(F)cc3)c(C(=O)O)c2)ccc1Nc1ccc(F)cc1 [1:2, 3,3′-oxybis[6-(4-fluorophenyl-amino)benzoic acid]] | 845 nM | 97% | – | –
CC(C)(C)c1ccc(C(=O)Nc2cccc(Oc3ccc(NS(=O)(=O)c4ccc(C(C)(C)C)cc4)c(C(=O)O)c3)c2)cc1 [29:1] | 802 nM | 97% | – | –
CCCCc1ccc(S(=O)(=O)Nc2ccc(Oc3ccc(NC(=O)c4ccc(C(F)(F)F)cc4)c(C(=O)O)c3)cc2)cc1 [Example 11:1, 5-[4-(4-butylbenzene-sulfonylamino)phenoxy]-2-(4-trifluoromethylbenzoylamino)-benzoic acid] | – | 99% | – | –
CN(c1cc(Oc2ccc(Nc3ccc(C(=O)C4CC4)cc3)cc2)cc(C(=O)O)c1)c1ccc(F)c(F)c1 [18:3, 3-[4-(4-Cyclopropanecarbonyl-phenylamino)-phenoxy]-5-[(3,4-difluoro-phenyl)-methyl-amino]-benzoic acid] | – | 95% | – | –
O=C(Nc1cccc(Oc2ccc(NC(=O)c3ccc(C(F)(F)F)cc3F)c(C(=O)O)c2)c1)c1cccc(C(F)(F)F)c1 [10:5, 2-(2-fluoro-4-trifluoromethylbenzoyl-amino)-5-[3-(3-trifluoro-methylbenzoylamino)phenoxy]benzoic acid] | – | – | – | 98%
CC(C)(C)OC(=O)c1cc(Oc2cccc(C(=O)NS(=O)(=O)c3ccc(F)c(F)c3)c2)ccc1Nc1ccc(Cl)cc1 [20:6, 2-(4-Chloro-phenylamino)-5-[3-(3,4-difluoro-benzenesulfonylamino-carbonyl)-phenoxy]-benzoic acid t-butyl ester] | – | 100% | – | –
CCCCOc1ccc(S(=O)(=O)Nc2ccc(Oc3ccc(N(C)C(=O)c4cccc(Cl)c4Cl)c(C(=O)O)c3)cc2)cc1 [11:10, 5-[4-(4-butoxybenzenesulfonyl-amino)phenoxy]-2-[(2,3-di-chlorobenzoyl)methylamino]-benzoic acid] | – | 95% | – | –
CCCCN(c1ccc(Oc2ccc(Nc3ccc(F)c(F)c3)c(C(=O)O)c2)cc1)c1ccc(F)c(F)c1 [24:1, 5-{4-[n-Butyl-(3,4-difluorophenyl)-amino]phenoxy}-2-(3,4-difluoro-phenylamino)benzoic acid] | – | 93% | – | –

Source: patent US20110071197A1, “BIS-ARYL COMPOUNDS FOR USE AS MEDICAMENTS” (priority 2008, published 2011)
